As to `*C(=O)Nc1ccc(Oc2cccc(Oc3ccc(NC(=O)c4ccc5c(c4)C(=O)N(c4cccc(Oc6cccc(Oc7cccc(N8C(=O)c9ccc(*)cc9C8=O)c7)c6C#N)c4)C5=O)cc3)c2)cc1` (repeat unit), the glass transition temperature was determined as 207.00 °C.
Then `*C(=O)c1ccc2c(c1)C(=O)N(c1cc(C(c3ccc(O)c(N4C(=O)c5ccc(*)cc5C4=O)c3)(C(F)(F)F)C(F)(F)F)ccc1O)C2=O` (repeat unit), with 315.00 °C; and `*CC1CCCC(CN2C(=O)c3ccc(C(=O)c4ccc5c(c4)C(=O)N(*)C5=O)cc3C2=O)C1` (repeat unit), with 213.00 °C; and `*CCCCCCCCCCCCN1C(=O)c2ccc(C(=O)c3ccc4c(c3)C(=O)N(*)C4=O)cc2C1=O` (repeat unit), with 87.50 °C.
`*CCCCCCCCCCN1C(=O)c2ccc(Oc3ccc4c(c3)C(=O)N(*)C4=O)cc2C1=O` (repeat unit) registered a glass transition temperature of 91.50 °C.
`*CCCCCCN1C(=O)c2ccc(Oc3ccc4c(c3)C(=O)N(*)C4=O)cc2C1=O` (repeat unit) registered a glass transition temperature of 164.00 °C.
Regarding `*CCOCCOCCN1C(=O)c2ccc(C(=O)Oc3ccc4cc(OC(=O)c5ccc6c(c5)C(=O)N(*)C6=O)ccc4c3)cc2C1=O` (repeat unit), the glass transition temperature stood at 105.00 °C.
As for `*OC(=O)Oc1ccc2c(c1)Oc1cc(*)ccc1C21c2ccccc2-c2ccccc21` (repeat unit), the glass transition temperature was found to be 295.00 °C.
For the compound `*OC(=O)c1ccc(C(=O)Oc2ccc3c(c2)Oc2cc(*)ccc2C32c3ccccc3-c3ccccc32)cc1` (repeat unit), the glass transition temperature came out at 290.00 °C.
Turning to `*Oc1cc(Oc2cccc(NC(=O)c3cc(Oc4ccc(C(=O)O)c(C(=O)Nc5cccc(*)c5)c4)ccc3C(=O)O)c2)ccc1C#N` (repeat unit), the glass transition temperature worked out at 195.80 °C.
The figure for `*Oc1ccc(*)cc1` (repeat unit) is 85.00 °C; for `*Oc1ccc(S(=O)(=O)c2ccc(Oc3ccc4c(=O)n5c6cc(-c7ccc8c(c7)nc7c9ccc(*)c%10cccc(c(=O)n87)c%109)ccc6nc5c5cccc3c45)cc2)cc1` (repeat unit) it is 415.00 °C; for `*Oc1ccc(Sc2ccc(OC3(F)C(*)(F)C(F)(F)C3(F)F)cc2)cc1` (repeat unit) it is 78.00 °C.
The compound `*Oc1ccc(Sc2ccc(Oc3ccc4c(=O)n5c6cc(-c7ccc8c(c7)nc7c9ccc(*)c%10cccc(c(=O)n87)c%109)ccc6nc5c5cccc3c45)cc2)cc1` (repeat unit) registered a glass transition temperature of 386.00 °C.
The figure for `*Oc1ccc2cc(C(*)=O)ccc2c1` (repeat unit) is 147.00 °C; for `*Oc1ccc2cc(OC(=O)c3cccc(Oc4ccc(Oc5cccc(C(*)=O)c5)cc4)c3)ccc2c1` (repeat unit) it is 125.00 °C; for `*Oc1ccc2cc(Oc3ccc4c(=O)n5c6cc(-c7ccc8c(c7)nc7c9ccc(*)c%10cccc(c(=O)n87)c%109)ccc6nc5c5cccc3c45)ccc2c1` (repeat unit) it is 413.00 °C.
Then `*Oc1ccc2ccc(OC(=O)c3ccc(Oc4ccc(C(*)=O)cc4)cc3)cc2c1` (repeat unit), with 142.00 °C; and `*Oc1cccc(C(F)(F)C(F)(F)C(F)(F)c2cccc(OC(=O)c3cccc(C(F)(F)C(F)(F)C(F)(F)c4cccc(C(*)=O)c4)c3)c2)c1` (repeat unit), with 74.00 °C; and `*Oc1cccc(Oc2ccc(Oc3cccc(OC(=O)c4ccc(C(*)=O)cc4)c3)cc2)c1` (repeat unit), with 103.00 °C.
As to `*Oc1cccc2cc(OC(=O)c3ccc(Oc4ccc(C(*)=O)cc4)cc3)ccc12` (repeat unit), the glass transition temperature came out at 179.00 °C.
Regarding `*c1ccc(-c2ccc(N3C(=O)c4ccc(Oc5ccc6c(c5)C(=O)N(*)C6=O)cc4C3=O)cc2)cc1` (repeat unit), the glass transition temperature was found to be 286.00 °C.
Take `*c1ccc(C(=O)c2ccc(C(=O)c3ccc(S(*)(=O)=O)cc3)cc2)cc1` (repeat unit): the glass transition temperature was determined as 213.50 °C.
`*c1ccc(C(c2ccc(N3C(=O)c4ccc(Oc5ccc6ccc(Oc7ccc8c(c7)C(=O)N(*)C8=O)cc6c5)cc4C3=O)cc2)(C(F)(F)F)C(F)(F)F)cc1` (repeat unit) had a glass transition temperature of 256.00 °C.
Turning to `*c1ccc(Oc2ccc(-c3c(-c4ccccc4)nc4ccc(Oc5ccc6nc(-c7ccccc7)c(*)c(-c7ccccc7)c6c5)cc4c3-c3ccccc3)cc2)cc1` (repeat unit), the glass transition temperature came out at 252.50 °C.
`*c1ccc(Oc2ccc(-c3ccc(Oc4ccc(N5C(=O)c6ccc(Oc7ccc(Sc8ccc(Oc9ccc%10c(c9)C(=O)N(*)C%10=O)cc8)cc7)cc6C5=O)cc4)cc3)cc2)cc1` (repeat unit) had a glass transition temperature of 205.00 °C.
Turning to `*c1ccc(Oc2ccc(-c3ccc(Oc4ccc(N5C(=O)c6ccc(Oc7ccc8cc(Oc9ccc%10c(c9)C(=O)N(*)C%10=O)ccc8c7)cc6C5=O)cc4)cc3)cc2)cc1` (repeat unit), the glass transition temperature was determined as 230.00 °C.
In the case of `*c1ccc(Oc2ccc(-c3ccc(Oc4ccc(N5C(=O)c6ccc(Oc7cccc(Oc8ccc9c(c8)C(=O)N(*)C9=O)c7)cc6C5=O)cc4)cc3)cc2)cc1` (repeat unit), the glass transition temperature is 200.00 °C.
Consider `*c1ccc(Oc2ccc(N3C(=O)c4ccc(Oc5ccc6ccc(Oc7ccc8c(c7)C(=O)N(*)C8=O)cc6c5)cc4C3=O)cc2)cc1` (repeat unit), for which the glass transition temperature amounted to 245.00 °C.
As for `*c1ccc(Oc2ccc(Oc3ccc(N4C(=O)c5ccc(Oc6ccc(Sc7ccc(Oc8ccc9c(c8)C(=O)N(*)C9=O)cc7)cc6)cc5C4=O)cc3)cc2)cc1` (repeat unit), the glass transition temperature is 201.00 °C.
Then `*c1ccc(Oc2ccc(Oc3ccc(N4C(=O)c5ccc(Oc6ccc7c(c6)C(=O)N(*)C7=O)cc5C4=O)cc3C(F)(F)F)cc2)cc1` (repeat unit), with 232.30 °C; and `*c1ccc(Oc2ccc(Oc3ccc(N4C(=O)c5ccc(Oc6ccc7ccc(Oc8ccc9c(c8)C(=O)N(*)C9=O)cc7c6)cc5C4=O)cc3)cc2)cc1` (repeat unit), with 228.00 °C.
`*c1ccc(Oc2ccc(S(=O)(=O)c3ccc(Oc4ccc(N5C(=O)c6ccc(Oc7cccc(Oc8ccc9c(c8)C(=O)N(*)C9=O)c7)cc6C5=O)cc4)cc3)cc2)cc1` (repeat unit): the glass transition temperature turned out to be 201.00 °C.
In turn, `*c1ccc(Oc2cccc(-c3cc(-c4ccccc4)cc(-c4cccc(Oc5ccc(N6C(=O)c7ccc(Oc8ccc9c(c8)C(=O)N(*)C9=O)cc7C6=O)cc5)c4)n3)c2)cc1` (repeat unit) gave a glass transition temperature of 224.00 °C.
As for `*c1ccc(Oc2cccc(N3C(=O)c4ccc(Oc5ccc6cc(Oc7ccc8c(c7)C(=O)N(*)C8=O)ccc6c5)cc4C3=O)c2)cc1` (repeat unit), the glass transition temperature worked out at 225.00 °C.
`*c1ccc(Oc2cccc(N3C(=O)c4ccc(Oc5ccc6ccc(Oc7ccc8c(c7)C(=O)N(*)C8=O)cc6c5)cc4C3=O)c2)cc1` (repeat unit) had a glass transition temperature of 221.00 °C.
In turn, `*c1ccc(Oc2cccc(Oc3ccc(N4C(=O)c5cccc(Oc6ccc(Sc7ccc(Oc8cccc9c8C(=O)N(*)C9=O)cc7)cc6)c5C4=O)cc3)c2)cc1` (repeat unit) showed a glass transition temperature of 202.00 °C.
With `*c1ccc(S(=O)(=O)c2ccc(-n3nc(-c4ccccc4)c4ccc(Oc5ccc6c(-c7ccccc7)nn(*)c(=O)c6c5)cc4c3=O)cc2)cc1` (repeat unit), the glass transition temperature was 294.50 °C.
As for `*c1ccc(Sc2ccc(Sc3ccc(Sc4ccc(N5C(=O)c6ccc(Oc7ccc8c(c7)C(=O)N(*)C8=O)cc6C5=O)cc4)cc3)cc2)cc1` (repeat unit), the glass transition temperature is 202.7 °C.
Turning to `*c1ccc2cc(OC(=O)c3ccc(C(=O)Oc4ccc5cc(-c6nc7ccccc7nc6*)ccc5c4)cc3)ccc2c1` (repeat unit), the glass transition temperature was found to be 136.00 °C.
Compound `*c1cccc(-c2nc3cc(Oc4ccc5nc(-c6ccccc6)c(*)nc5c4)ccc3nc2-c2ccccc2)c1` (repeat unit) displayed a glass transition temperature of 270.00 °C.
Then `*c1cccc(C(F)(F)C(F)(F)C(F)(F)C(F)(F)C(F)(F)c2cccc(N3C(=O)c4ccc(Oc5ccc6c(c5)C(=O)N(*)C6=O)cc4C3=O)c2)c1` (repeat unit), with 157.00 °C.
`*c1cccc(C(F)(F)C(F)(F)C(F)(F)c2cccc(N3C(=O)c4ccc(Oc5ccc6c(c5)C(=O)N(*)C6=O)cc4C3=O)c2)c1` (repeat unit): the glass transition temperature was 183.00 °C.
`*c1cccc(N2C(=O)c3ccc(Oc4ccc5cc(Oc6ccc7c(c6)C(=O)N(*)C7=O)ccc5c4)cc3C2=O)c1` (repeat unit) registered a glass transition temperature of 230.00 °C.
`*c1cccc(Oc2ccc(C#N)c(Oc3cccc(N4C(=O)c5ccc(Oc6ccc7c(c6)C(=O)N(*)C7=O)cc5C4=O)c3)c2)c1` (repeat unit) displayed a glass transition temperature of 196.00 °C.
`*c1cccc(Oc2cccc(Oc3cccc(N4C(=O)c5ccc(Oc6ccc(Sc7ccc(Oc8ccc9c(c8)C(=O)N(*)C9=O)cc7)cc6)cc5C4=O)c3)c2)c1` (repeat unit): the glass transition temperature amounted to 190.50 °C.
The figure for `*c1cccc(Oc2cccc(Oc3cccc(N4C(=O)c5ccc(Oc6ccc7c(c6)C(=O)N(*)C7=O)cc5C4=O)c3)c2C#N)c1` (repeat unit) is 219.00 °C.
`*c1cccc(P(=O)(c2ccc(C(F)(F)F)cc2)c2cccc(N3C(=O)c4ccc(Oc5ccc6c(c5)C(=O)N(*)C6=O)cc4C3=O)c2)c1` (repeat unit) yielded a glass transition temperature of 248.00 °C.
As for `*c1cccc(P(=O)(c2ccc(Oc3ccc(C45CC6CC(CC(C6)C4)C5)cc3)cc2)c2cccc(N3C(=O)c4ccc(Oc5ccc6c(c5)C(=O)N(*)C6=O)cc4C3=O)c2)c1` (repeat unit), the glass transition temperature was 290.00 °C.
On to `*c1cccc(P(=O)(c2cccc(N3C(=O)c4ccc(Oc5ccc6c(c5)C(=O)N(*)C6=O)cc4C3=O)c2)c2cc(C(F)(F)F)cc(C(F)(F)F)c2)c1` (repeat unit), for which the glass transition temperature was found to be 228.00 °C.
`*c1cccc(P(=O)(c2ccccc2)c2cccc(N3C(=O)c4ccc(Oc5ccc6c(c5)C(=O)N(*)C6=O)cc4C3=O)c2)c1` (repeat unit) returned a glass transition temperature of 251.00 °C.

For the origin of these results see the PolyMetriX glass transition set.
